Data reported in US12655116B2, “Substituted isophthalic acid diamides” (Bayer Aktiengesellschaft, priority 2020, dated 2026).

Experiments:
[1] = test system: ABUTH; assay: Pre-emergence herbicidal action against ABUTH; type: in vivo, Abutilon theophrasti
Outline: (§1)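 Seeds sown in sandy loam, soil-covered; compound sprayed on soil surface pre-emergence. Application: WP/EC, 600–800 l/ha, 0.2% wetting agent. Readout: visual % damage at 3 weeks.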

[2] = test system: AMARE; assay: Pre-emergence herbicidal action against AMARE; type: in vivo, Amaranthus retroflexus
Outline: as §1

[3] = test system: AVEFA; assay: Pre-emergence herbicidal action against AVEFA; type: in vivo, Avena fatua; conditions: Avena fatua, 504 h; 80 g/ha, pre-emergence
Outline: as §1

[4] = test system: ECHCG; assay: Pre-emergence herbicidal action against ECHCG; type: in vivo, Echinochloa crus-galli; conditions: 80 g/ha
Outline: as §1

[5] = test system: MATIN; assay: Pre-emergence herbicidal action against MATIN; type: in vivo, Matricaria inodora
Outline: as §1

[6] = test system: PHBPU; assay: Pre-emergence herbicidal action against PHBPU; type: in vivo, Pharbitis purpurea; conditions: dosage 80 g/ha
Outline: as §1

[7] = test system: POLCO; assay: Pre-emergence herbicidal action against POLCO; type: in vivo, Polygonum convolvulus; conditions: dosage 80 g/ha
Outline: as §1

[8] = test system: SETVI; assay: Pre-emergence herbicidal action against SETVI; type: in vivo, Setaria viridis; conditions: dosage 80 g/ha
Outline: as §1

[9] = test system: VERPE; assay: Pre-emergence herbicidal action against VERPE; type: in vivo, Veronica persica; conditions: dosage 80 g/ha
Outline: as §1

[10] = test system: VIOTR; assay: Pre-emergence herbicidal action against VIOTR; type: in vivo, Viola tricolor
Outline: as §1

[11] = test system: DIGSA; assay: Pre-emergence herbicidal action against DIGSA; type: in vivo, Digitaria sanguinalis
Outline: as §1

[12] = test system: ABUTH; assay: Post-emergence herbicidal action against ABUTH; type: in vivo, Abutilon theophrasti; conditions: visual assessment about 3 weeks after treatment vs untreated controls
Outline: (§2)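 Percent herbicidal action is rated by eye about 3 weeks after treatment against untreated controls, where 100% means dead plants and 0% means like controls. Plants in sandy loam are sprayed on green parts at the one-leaf stage with aqueous WP or EC preparations at 600 to 800 l/ha plus 0.2% wetting agent.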

[13] = test system: AMARE; assay: Post-emergence herbicidal action against AMARE; type: in vivo, Amaranthus retroflexus; conditions: 20 g/ha, visual assessment about 3 weeks after treatment, 100% = plants have died, 0% = like control plants
Outline: as §2

[14] = test system: ECHCG; assay: Post-emergence herbicidal action against ECHCG; type: in vivo, Echinochloa crus-galli
Outline: as §2

[15] = test system: MATIN; assay: Post-emergence herbicidal action against MATIN; type: in vivo, Matricaria inodora
Outline: as §2

[16] = test system: POLCO; assay: Post-emergence herbicidal action against POLCO; type: in vivo, Polygonum convolvulus; conditions: dosage 20 g/ha
Description: Seeds of monocotyledonous and dicotyledonous weed and crop plants are laid out in sandy loam soil in wood-fiber pots, covered with soil and cultivated in a greenhouse under good growth conditions. 2 to 3 weeks after sowing, the test plants are treated at the one-leaf stage. The compounds of the invention, formulated in the form of wettable powders (WP) or as emulsion concentrates (EC), are then sprayed onto the green parts of the plants in the form of an aqueous suspension or emulsion at a water application rate equivalent to 600 to 800 l/ha, with addition of 0.2% wetting agent. After the test plants have been left to stand in the greenhouse under optimal growth conditions for about 3 weeks, the action of the preparations is assessed visually in comparison to untreated controls (herbicidal action in percent (%): 100% activity=the plants have died, 0% activity=like control plants). […] The tables below illustrate, in an illustrative manner, the post-emergence herbicidal action of the compounds of the invention, the herbicidal activity being stated in percent.

[17] = test system: SETVI; assay: Post-emergence herbicidal action against SETVI; type: in vivo, Setaria viridis
Outline: as §2

[18] = test system: VERPE; assay: Post-emergence herbicidal action against VERPE; type: in vivo, Veronica persica; conditions: 20 g/ha
Outline: as §2

[19] = test system: VIOTR; assay: Post-emergence herbicidal action against VIOTR; type: in vivo, Viola tricolor
Outline: as §2

[20] = test system: DIGSA; assay: Post-emergence herbicidal action against DIGSA; type: in vivo, Digitaria sanguinalis; conditions: Digitaria sanguinalis, 504 h
Outline: as §2

[21] = test system: PHBPU; assay: Post-emergence herbicidal action against PHBPU; type: in vivo, Pharbitis purpurea; conditions: dosage 20 g/ha
Outline: as §2

[22] = Tripleurospermum inodorum, 504 h, dosage 20 g/ha
[23] = 80 g/ha, scored visually after 3 weeks vs untreated controls (100% = plants have died, 0% = like control plants)

Cn1nnnc1NC(=O)c1ccc(C(F)F)c(C(=O)NC2CC2)c1C1CC1 [Example 1-306]
80%: pest or weed control at 80 g/ha [3] | pest or weed control at 5 g/ha ([12]; Abutilon theophrasti, 504 h, dosage 5 g/ha) | pest or weed control at 20 g/ha ([12]; Abutilon theophrasti, 504 h, dosage 20 g/ha) | pest or weed control at 20 g/ha ([16]; Fallopia convolvulus, 504 h)
100%: pest or weed control at 80 g/ha ([1]; Abutilon theophrasti, 504 h, 80 g/ha, scored visually after 3 weeks vs untreated controls (100% = plants have died, 0% = like control plants)) | pest or weed control at 20 g/ha ([1]; Abutilon theophrasti, 504 h, dosage 20 g/ha, scored visually after 3 weeks vs untreated controls, 100% = plants have died, 0% = like control plants, read-out: Pre-emergence action against ABUTH (herbicidal activity in percent)) | pest or weed control at 20 g/ha ([2]; Amaranthus retroflexus, 504 h, 20 g/ha, scored visually after 3 weeks vs untreated controls, 100% = plants have died, 0% = like control plants) | pest or weed control at 80 g/ha ([2]; Amaranthus retroflexus, 504 h, 80 g/ha, scored visually after 3 weeks vs untreated controls, 100% = plants have died, 0% = like control plants) | pest or weed control at 80 g/ha ([4]; Echinochloa crus-galli, 504 h) | pest or weed control at 20 g/ha [5, 22] | pest or weed control at 80 g/ha ([5]; Tripleurospermum inodorum, 504 h, dosage 80 g/ha) | pest or weed control at 80 g/ha ([8]; Setaria viridis, 504 h) | pest or weed control at 20 g/ha ([10]; Viola tricolor, 504 h, dosage 20 g/ha) | pest or weed control at 80 g/ha ([10]; Viola tricolor, 504 h, dosage 80 g/ha) | pest or weed control at 20 g/ha ([11]; Digitaria sanguinalis, 504 h, dosage 20 g/ha) | pest or weed control at 80 g/ha ([11]; Digitaria sanguinalis, 504 h, dosage 80 g/ha) | pest or weed control at 20 g/ha ([13]; Amaranthus retroflexus, 504 h)
90%: pest or weed control at 80 g/ha ([6]; Ipomoea purpurea, 504 h) | pest or weed control at 80 g/ha ([7]; Fallopia convolvulus, 504 h) | pest or weed control at 80 g/ha ([9]; Veronica persica, 504 h) | pest or weed control at 5 g/ha ([14]; Echinochloa crus-galli, 504 h, dosage 5 g/ha) | pest or weed control at 20 g/ha ([14]; Echinochloa crus-galli, 504 h, dosage 20 g/ha) | pest or weed control at 5 g/ha ([15]; Tripleurospermum inodorum, 504 h, dosage 5 g/ha) | pest or weed control at 20 g/ha [15, 22] | pest or weed control at 5 g/ha ([17]; Setaria viridis, 504 h, dosage 5 g/ha) | pest or weed control at 20 g/ha ([17]; Setaria viridis, 504 h, dosage 20 g/ha) | pest or weed control at 20 g/ha ([18]; Veronica persica, 504 h) | pest or weed control at 20 g/ha ([19]; Viola tricolor, 504 h, 20 g/ha) | pest or weed control at 5 g/ha ([20]; 5 g/ha) | pest or weed control at 20 g/ha ([20]; 20 g/ha)

CCn1nnnc1NC(=O)c1ccc(C(F)F)c(C(=O)NC)c1C1CC1 [Example 2-304]
90%: Pre-emergence action against ECHCG in % [4] | Pre-emergence action against MATIN in % ([5]; dosage 20 g/ha) | Pre-emergence action against PHBPU in % [6] | Pre-emergence action against SETVI in % [8] | Pre-emergence action against VIOTR in % ([10]; dosage 20 g/ha) | Pre-emergence action against DIGSA in % ([11]; dosage 20 g/ha) | Post-emergence action against ABUTH in % ([12]; dosage 5 g/ha) | Post-emergence action against ABUTH in % ([12]; dosage 20 g/ha) | Post-emergence action against MATIN in % ([15]; dosage 5 g/ha) | Post-emergence action against MATIN in % ([15]; dosage 20 g/ha) | Post-emergence action against PHBPU in % [21] | Post-emergence action against VERPE in % [18] | Post-emergence action against VIOTR in % ([19]; 20 g/ha)
100%: Pre-emergence action against ABUTH (herbicidal activity) [1, 23] | Pre-emergence action against ABUTH (herbicidal activity in percent) ([1]; dosage 20 g/ha, scored visually after 3 weeks vs untreated controls, 100% = plants have died, 0% = like control plants) | Pre-emergence action against AMARE in % ([2]; 20 g/ha, scored visually after 3 weeks vs untreated controls, 100% = plants have died, 0% = like control plants) | Pre-emergence action against AMARE in % [2, 23] | Pre-emergence action against MATIN in % ([5]; dosage 80 g/ha) | Pre-emergence action against VERPE in % [9] | Pre-emergence action against VIOTR in % ([10]; dosage 80 g/ha) | Pre-emergence action against DIGSA in % ([11]; dosage 80 g/ha) | Post-emergence action at 20 g/ha against AMARE in % [13]
80%: Pre-emergence action against POLCO in % [7] | Post-emergence action against ECHCG in % ([14]; dosage 20 g/ha) | Post-emergence action against POLCO in % [16] | Post-emergence action against SETVI in % ([17]; dosage 5 g/ha) | Post-emergence action against SETVI in % ([17]; dosage 20 g/ha) | Post-emergence action against VIOTR in % ([19]; 5 g/ha)
